The test system of data set [1] is Pgp+ (DiOC2(3)-dye effluxing) T cells. In words: DiOC2(3) dye efflux flow cytometry of inhibitor-treated T cells. It is filed as cell-based, human. The note with it: treatment for 13 days, IL2 + CD3 and CD28 antibodies. In a few lines: (§1)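 Donor PBMC-derived T cells, stimulated with IL2 (50 IU/ml) and/or CD3/CD28 antibodies (30 ng/ml), were exposed to inhibitors from day 1 for about 13 days with periodic drug re-addition. Cells were loaded with DiOC2(3) (60 ng/ml, 4° C, 40 min), effluxed at 37° C for 90 min, and optionally stained with CD62L-APC. Flow cytometry scored DiOC2(3)-dull (Pgp+) and CD62L+ populations.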
Background: Flow cytometry measures light scatter and fluorescence of single cells or particles in a stream.

Data set [2] relates to Pgp+ (DiOC2(3)-dye effluxing cells) and CD62L+ T cells. In words: DiOC2(3) dye efflux plus CD62L-APC staining, flow cytometry of inhibitor-treated T cells. It is filed as cell-based, human. The note with it: treatment for 13 days, IL2 + CD3 and CD28 antibodies. A digest of the protocol:
as §1

For data set [3], the system named is CD8+CD45RA+CCR7+CD62L+ T cells. Briefly: Flow cytometry for CD8, CD45RA, CCR7 and CD62L on inhibitor-treated T cells. The note with it: cells cultured for 14 days. The format is cell-based, human. In a few lines: (§2)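 Donor T cells were isolated from PBMC with CD3 microbeads and activated overnight in XVIVO 15 with IL2 50 IU/ml plus 30 ng/ml anti-CD3/CD28. They were treated with drugs from day 1, with medium and drug refreshed on days 7 and 13. After 13–14 days, cells were stained for CD8, CD45RA, CCR7 and CD62L (4 °C, 1 h) and analysed by flow cytometry.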

Data set [4] concerns CD45RA+CCR7+CD62L+ T cells. Briefly: Flow cytometry for CD45RA, CCR7 and CD62L on inhibitor-treated T cells (all T cells). It is filed as cell-based, human. To be noted: cells cultured for 14 days. A digest of the protocol: as §2
In data set [5] the test system is Nalm6-GLuc cells. In words: Blinatumomab induced cell death by inhibitor-treated T cells, Matador cytotoxicity assay. The format is cell-based. The note with it: Blinatumomab 100 ng/million T cells, overnight. As to the method:
After 20 days of treatment with the inhibitors, cells from the preceding experiment were tested for their ability to induce Blinatumomab induced cell death using the Matador cytotoxicity assay. For this purpose, untreated and inhibitors-treated T cells were plated in a 24 well plate at 2×10^5 cells/well either alone or in the presence of 2×10^5 Nalm6-GLuc cells in XVIVO medium without any additional growth factors. Blinatumomab (Blincyto) was added at final concentration of 100 ng/million T cells. Cells were cultured overnight and next day supernatant was collected and assayed using the Matador assay. For the Matador Assay, 15 μl of supernatant was added to 15 μl of XVIVO medium in each well of a 384-well plate and hGLuc assay was done by adding 15 μl of 1:100 CTZ per well in well mode.

A short description of data set [6]: Leukapheresis with and without mobilization and manufacturing of CAR-T/TCR-T cells from cancer patients. The format is in vivo, human. The protocol:
A study is conducted to compare the generation of cell therapy products from cancer patients who have received 2 or more cycles of prior chemotherapy. Patients with different types of different cancers (e.g., diffuse large B cell lymphoma, acute B-ALL, CLL, multiple myeloma, breast cancer, ovarian cancer, lung cancer etc.) are eligible. Leukapheresis products are collected from the subjects with and without mobilization with Perixafor (0.24 mg/kg subcutaneously daily on days 1-3). T cells are isolated and used for manufacturing of CAR-T and TCR-T cells using lentiviral mediated gene transduction as described in the preceding sections.

Data set [7] relates to T cells. In words: In vitro expansion of CAR/TCR T cells with bispecific engagers and antigen presenting cells or substrate (CFSE staining). It is filed as cell-based, human. The protocol:
Buffy coat cells are obtained from healthy de-identified adult donors from the Blood Bank and used to isolate peripheral blood mononuclear cells (PBMC) by Ficoll-Hypaque gradient centrifugation. PBMC are either used as such or used to isolate T cells using CD3 magnetic microbeads (Miltenyi Biotech) and following the manufacturer's instructions. PBMC or isolated T cells are re-suspended in XVIVO medium (Lonza) supplanted with 10 ng/ml CD3 antibody, 10 ng/ml CD28 antibody and 100 IU recombinant human-IL2. In an alternate embodiment, PBCM or T cells are activated by resuspending them at concentration of 5×10^5 cells/ml in fresh XVIVO media containing Blinatumomab (10 ng/ml) plus irradiated (100 Gy) REC-1 cells (Mantle Cell lymphoma; ATCC Catalog #CRL-3004) at concentration of 5×10^6 cells/ml in the presence of 50 IU recombinant human-IL2. In another alternate embodiment, the cell culture medium further contains a purified CD19×CD28 bispecific antibody (SEQ ID NO: 2708, 2705 or 2706) and/or a CD19×41BB bispecific antibody (SEQ ID NO: 2761, 2762, 2758 or 2764) each at concentration of about 10 ng/ml. Cells are cultured at 37° C., in a 5% CO2 humidified incubator. Cells are activated in the above medium for 1 day prior to infection with lentiviral vectors encoding a CAR or a TCR (e.g., SEQ ID NO: 2822 to 2835) or a TCR (SEQ ID NO: 2836). In general, primary cells (e.g. T cells) are infected in the morning using spin-infection (1800 rpm for 90 minutes at 37° C. with 300 μl of concentrated virus that has been re-suspended in XVIVO medium in the presence of 8 μg/ml of Polybrene® (Sigma, Catalog no. H9268). After the infection, the cells are pelleted and resuspended at concentration of 5×10^5 cells/ml in fresh XVIVO media containing Blinatumomab (10 ng/ml) plus irradiated (100 Gy) REC-1 (Mantle Cell lymphoma; ATCC Catalog #CRL-3004) cells (5×10^6 cells/ml) and 50 IU recombinant human-IL2. Cells are cultured in the above medium for 10-15 days. Culture media is supplemented with fresh REC-1 cells, blinatumomab and IL2 every 2-4 days. […] The expanded CAR-T cells are subsequently used for in vitro cytotoxicity studies, in vivo efficacy studies in NSG mice and clinical trial of patients with cancers expressing the antigens targeted by the CAR/TCR using methods known in the art.
The above experiment is also repeated using CD19+ RAJI and NALM6 cells. […] Thus, mantle cell lymphoma cells and, in particular, REC-1 cells are the preferred antigen presenting cells for expansion of T cells (e.g., CAR-T cells, TCR-T cells and TILs) when used in conjuction with bispecific T cell engagers that has at least one binding domain that binds to an antigen expressed on REC-1 (e.g, CD19, CD20, CD22 and BCMA). […]

Regarding `CCC(CC)n1ccc2c(C(=O)NCc3c(C)cc(C)[nH]c3=O)cc(C#N)cc21` [EI1], the “p2: pgp+ from Live cells” value is given as 33.53 in data set [1] (500 nM) and 59.77 in data set [1] (1 μM). The “p5: double +ve pgp+ and CD62L-APC+ from Live cells” value (from here on “p5: double +ve pgp+ and CD62L-APC+”) in data set [2] (500 nM) stood at 10.2; in data set [2] (1 μM) it was 19.21. Also, the “GATE P4 CD8(PerCP)+, CD45RA(FITC)+, CCR7 (PE)+, CD62L(APC)” value (“GATE P4 CD8(PerCP)+, CD45RA(FITC)+, CCR7” for short) came to 76.19% in data set [3] (500 nM) and 78.47% in data set [3] (1 μM). In addition, the “GATE P6 CD45RA(FITC)+, CCR7 (PE)+, CD62L(APC)” value (shortened to “GATE P6 CD45RA(FITC)+, CCR7”) is 67.64% in data set [4] (500 nM) and 66.83% in data set [4] (1 μM). Also, the “Blinatumomab induced cytotoxicity compared to untreated T cells” value in data set [5] (T cells after 20 days of treatment at 500 nM) was “significant increase in cytotoxicity”.
With `Cc1cc(C)c(CNC(=O)c2cc(-c3ccc(CN4CCOCC4)cc3)cc3c2cnn3C2CCCC2)c(=O)[nH]1` [EPZ005687], the “p2: pgp+ from Live cells” value was found to be 23.99 in data set [1] (10 nM) and 16.94 in data set [1] (100 nM). Moreover, the “p5: double +ve pgp+ and CD62L-APC+” value in data set [2] (10 nM) is listed as 5.21; in data set [2] (100 nM), 3.87. Further, the “GATE P4 CD8(PerCP)+, CD45RA(FITC)+, CCR7” value in data set [3] (10 nM) is 74.86%; in data set [3] (100 nM), 79.65%. Further, the entries for the “GATE P6 CD45RA(FITC)+, CCR7” value in data set [4] (10 nM) and in data set [4] (100 nM) were 64.01% and 69.92%, respectively. Also, in data set [5] (T cells after 20 days of treatment at 100 nM), the “Blinatumomab induced cytotoxicity compared to untreated T cells” value is given as “significant increase in cytotoxicity”.
On to `Cc1cc(=O)n(C)c2cc(N3C(=O)CC[C@H](NS(=O)(=O)CC(C)C)[C@H]3c3ccc(Cl)cc3)ccc12` [LP99], for which the “p2: pgp+ from Live cells” value in data set [1] (500 nM) is recorded as 19.46; in data set [1] (1 μM), 20.66. For the same molecule, the “p5: double +ve pgp+ and CD62L-APC+” value came to 3.52 in data set [2] (500 nM) and 4.18 in data set [2] (1 μM). The “GATE P4 CD8(PerCP)+, CD45RA(FITC)+, CCR7” value in data set [3] (500 nM) is 79.25%; in data set [3] (1 μM) it was 79.77%. The “GATE P6 CD45RA(FITC)+, CCR7” value is 69.67% in data set [4] (500 nM) and 67.58% in data set [4] (1 μM). Besides, in data set [5] (T cells after 20 days of treatment at 1 μM), the “Blinatumomab induced cytotoxicity compared to untreated T cells” value is “significant increase in cytotoxicity”.
On to `c1cc(CN2CCCNCCNCCCNCC2)ccc1CN1CCCNCCNCCCNCC1` [Perixafor, 1,1′-[1,4-phenylenebis(methylene)]bis [1,4,8,11-tetraazacyclotetradecane]], for which the “yield of T cells in the initial leukapheresis product” value in data set [6] (cancer patients with 2 or more cycles of prior chemotherapy, with versus without mobilization) is on record as “improves the yield”. The “effect on gene transduction, CAR/TCR expression, in vitro and in vivo expansion, cytotoxicity, cytokine production and anti-tumor efficacy of CAR-T/TCR-T products” value in data set [6] (with versus without mobilization) is reported as “no major adverse effect”.
As for `CCCc1cc(C)[nH]c(=O)c1CNC(=O)c1cc(-c2ccc(N3CCN(C(C)C)CC3)nc2)cc2c1cnn2C(C)C` [UNC1999], the “p2: pgp+ from Live cells” value came out at 36.8 in data set [1] (100 nM) and 31.14 in data set [1] (500 nM). In addition, the “p5: double +ve pgp+ and CD62L-APC+” value in data set [2] (100 nM) stood at 11.06; in data set [2] (500 nM), 8.9. The “GATE P4 CD8(PerCP)+, CD45RA(FITC)+, CCR7” value worked out at 71.75% in data set [3] (100 nM) and 74.57% in data set [3] (500 nM). Besides, the “GATE P6 CD45RA(FITC)+, CCR7” value was 59.08% in data set [4] (100 nM) and 60.97% in data set [4] (500 nM).
In the case of BI7273, the “p2: pgp+ from Live cells” value is 16.69 in data set [1] (100 nM) and 16.34 in data set [1] (500 nM). The figures for the “p5: double +ve pgp+ and CD62L-APC+” value in data set [2] (100 nM) and in data set [2] (500 nM) were 2.73 and 2.38, respectively. Besides, the entries for the “GATE P4 CD8(PerCP)+, CD45RA(FITC)+, CCR7” value in data set [3] (100 nM) and in data set [3] (500 nM) were 70.33% and 77.81%, respectively. Besides, the entries for the “GATE P6 CD45RA(FITC)+, CCR7” value in data set [4] (100 nM) and in data set [4] (500 nM) were 57.15% and 61.86%, respectively.
On to “Blinatumomab: a CD19×CD3 bispecific antibody”, for which the “expansion of CAR-T cells” value in data set [7] (10 ng/ml with CD19-ECD beads, CD28 antibody 10 ng/ml and IL2 50 IU, 10-25 days) is reported as “Robust expansion”. Moreover, the “expansion of cells, CFSE staining” value in data set [7] (10 ng/ml with irradiated REC-1 cells and 50 IU IL2, 10-15 days) was “Robust expansion”. The “degree of expansion of CAR or TCR expressing T cells” value in data set [7] (co-culture with CD19+ RAJI and NALM6 cells instead of REC-1 cells) is “less than that observed with REC-1 cells”. Besides, the “expansion of CAR-expressing PBMC and/or T cells” value in data set [7] (combination of Blinatumomab, CD19×CD28 bispecific antibody, REC-1 cells and IL2) is recorded as “Robust expansion”.
Turning to “GM-CSF: cytokine used as mobilization agent”, the “yield of leukapheresis product for generation of CAR-T cells” value in data set [6] (mobilization prior to leukapheresis) is reported as “improve the yield”.

Source of the values: patent US20210290676A1, “IMPROVING THE EFFICACY AND SAFETY OF ADOPTIVE CELLULAR THERAPIES” (University of Southern California, priority 2018, published 2021).
